Our source for the EC50 values is patent US10736883B2, “Triazole furan compounds as agonists of the APJ receptor” (AMGEN INC., priority 2016, dated 2020).

SMILES strings stand for the structures. pEC50: −log10 of the molar value.

Chain of APJ receptor (P35414 whole entry): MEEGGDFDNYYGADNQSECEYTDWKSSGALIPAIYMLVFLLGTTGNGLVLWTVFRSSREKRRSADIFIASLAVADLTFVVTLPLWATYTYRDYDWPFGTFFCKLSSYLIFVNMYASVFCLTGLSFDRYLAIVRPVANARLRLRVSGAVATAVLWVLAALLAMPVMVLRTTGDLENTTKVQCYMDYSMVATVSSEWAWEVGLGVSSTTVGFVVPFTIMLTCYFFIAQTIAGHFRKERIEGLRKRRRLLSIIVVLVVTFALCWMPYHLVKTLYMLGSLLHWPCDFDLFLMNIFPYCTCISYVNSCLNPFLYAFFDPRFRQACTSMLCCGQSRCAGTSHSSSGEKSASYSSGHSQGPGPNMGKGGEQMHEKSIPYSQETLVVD

The test concerns the target APJ receptor (Homo sapiens (Human), UniProt P35414). Description: [35S]GTPγS binding assay on membranes from CHO cells stably expressing human APJ receptor. The class given is biochemical. The note with it: membranes of CHO cells stably expressing human APJ receptor, means of several independent experiments, read-out: Activity hAPJ SPA EC50 IP. The essentials: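 EC50 values were obtained by non-linear regression of [35S]GTPγS (0.2 nM) binding after 90 min at RT, with nonspecific binding defined by 100 μM GTPγS. Reactions used human APJ–expressing CHO cell membranes on WGA PS beads in HEPES pH 7.5 buffer with 5 mM MgCl2, 200 mM NaCl, 3 μM GDP and 0.1% BSA.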
(GTPγS resists hydrolysis and so accumulates on activated G proteins.)
By pEC50 is commonly meant the EC50 on a negative log10 scale, so that one unit is a factor of ten. With `COc1cccc(OC)c1-n1c(NS(=O)(=O)[C@@H](C)[C@H](O)c2coc(C)n2)nnc1-c1ccc(C)o1` (single isomer, unassigned) [Example 275.0, (1R,2S)—N-(4-(2,6-Dimethoxyphenyl)-5-(5-methyl-2-furanyl)-4H-1,2,4-triazol-3-yl)-1-hydroxy-1-(2-methyl-1,3-oxazol-4-yl)-2-propanesulfonamide or (1S,2R)—N-(4-(2,6-dimethoxyphenyl)-5-(5-methyl-2-furanyl)-4H-1,2,4-triazol-3-yl)-1-hydroxy-1-(2-methyl-1,3-oxazol-4-yl)-2-propanesulfonamide], the pEC50 was 9.07.

Take `COc1cccc(OC)c1-n1c(NS(=O)(=O)[C@H](C)[C@@H](OC)c2cn3ccccc3n2)nnc1-c1ccc(C)o1` (single isomer, unassigned) [Example 287.0, (1R,2S)—N-(4-(2,6-Dimethoxyphenyl)-5-(5-methyl-2-furanyl)-4H-1,2,4-triazol-3-yl)-1-imidazo[1,2-a]pyridin-2-yl-1-methoxy-2-propanesulfonamide or (1S,2R)—N-(4-(2,6-dimethoxyphenyl)-5-(5-methyl-2-furanyl)-4H-1,2,4-triazol-3-yl)-1-imidazo[1,2-a]pyridin-2-yl-1-methoxy-2-propanesulfonamide]: the pEC50 was 8.39.

As for `COc1cccc(OC)c1-n1c(NS(=O)(=O)[C@H](C)[C@@H](O)c2ncn3ccccc23)nnc1-c1ccc(C)o1` (single isomer, unassigned) [Example 288.0, (1R,2S)—N-(4-(2,6-Dimethoxyphenyl)-5-(5-methyl-2-furanyl)-4H-1,2,4-triazol-3-yl)-1-hydroxy-1-imidazo[1,5-a]pyridin-1-yl-2-propanesulfonamide or (1S,2R)—N-(4-(2,6-dimethoxyphenyl)-5-(5-methyl-2-furanyl)-4H-1,2,4-triazol-3-yl)-1-hydroxy-1-imidazo[1,5-a]pyridin-1-yl-2-propanesulfonamide], the negative logarithm of the EC50 (pEC50) is 8.38.

Take `COc1cccc(OC)c1-n1c(NS(=O)(=O)[C@@H](C)[C@H](O)c2cn3ccccc3n2)nnc1-c1ccc(C)o1` (single isomer, unassigned) [Example 289.0, (1R,2S)—N-(4-(2,6-Dimethoxyphenyl)-5-(5-methyl-2-furanyl)-4H-1,2,4-triazol-3-yl)-1-hydroxy-1-imidazo[1,2-a]pyridin-2-yl-2-propanesulfonamide or (1S,2R)—N-(4-(2,6-dimethoxyphenyl)-5-(5-methyl-2-furanyl)-4H-1,2,4-triazol-3-yl)-1-hydroxy-1-imidazo[1,2-a]pyridin-2-yl-2-propanesulfonamide]: the negative logarithm of the EC50 (pEC50) was 8.31.

As to `COc1cccc(OC)c1-n1c(NS(=O)(=O)[C@@H](C)[C@H](O)c2cc3n(n2)CCCO3)nnc1-c1ccc(C)o1` (single isomer, unassigned) [Example 292.0, (1R,2S)-1-(6,7-Dihydro-5H-pyrazolo[5,1-b][1,3]oxazin-2-yl)-N-(4-(2,6-dimethoxyphenyl)-5-(5-methyl-2-furanyl)-4H-1,2,4-triazol-3-yl)-1-hydroxy-2-propanesulfonamide or (1S,2R)-1-(6,7-dihydro-5H-pyrazolo[5,1-b][1,3]oxazin-2-yl)-N-(4-(2,6-dimethoxyphenyl)-5-(5-methyl-2-furanyl)-4H-1,2,4-triazol-3-yl)-1-hydroxy-2-propanesulfonamide], the pEC50 is 8.29.

Turning to `COc1cccc(OC)c1-n1c(NS(=O)(=O)[C@H](C)[C@@H](O)c2ccnc3c2OCCC3)nnc1-c1ccc(C)o1` (single isomer, unassigned) [Example 293.0, (1R,2S)-1-(3,4-Dihydro-2H-pyrano[3,2-b]pyridin-8-yl)-N-(4-(2,6-dimethoxyphenyl)-5-(5-methyl-2-furanyl)-4H-1,2,4-triazol-3-yl)-1-hydroxy-2-propanesulfonamide or (1S,2R)-1-(3,4-dihydro-2H-pyrano[3,2-b]pyridin-8-yl)-N-(4-(2,6-dimethoxyphenyl)-5-(5-methyl-2-furanyl)-4H-1,2,4-triazol-3-yl)-1-hydroxy-2-propanesulfonamide], the negative-log EC50 (pEC50) is 8.26.

As to `COc1cccc(OC)c1-n1c(NS(=O)(=O)[C@H](C)[C@@H](O)c2cnc3ccccn23)nnc1-c1ccc(C)o1` (single isomer, unassigned) [Example 294.0, (1R,2S)—N-(4-(2,6-Dimethoxyphenyl)-5-(5-methyl-2-furanyl)-4H-1,2,4-triazol-3-yl)-1-hydroxy-1-imidazo[1,2-a]pyridin-3-yl-2-propanesulfonamide or (1S,2R)—N-(4-(2,6-dimethoxyphenyl)-5-(5-methyl-2-furanyl)-4H-1,2,4-triazol-3-yl)-1-hydroxy-1-imidazo[1,2-a]pyridin-3-yl-2-propanesulfonamide], the pEC50 is 8.24.

Turning to `COc1cccc(OC)c1-n1c(NS(=O)(=O)[C@@H](C)[C@H](O)c2cccc3ccnn23)nnc1-c1ccc(C)o1` (single isomer, unassigned) [Example 296.0, (1R,2S)—N-(4-(2,6-Dimethoxyphenyl)-5-(5-methyl-2-furanyl)-4H-1,2,4-triazol-3-yl)-1-hydroxy-1-pyrazolo[1,5-a]pyridin-7-yl-2-propanesulfonamide or (1S,2R)—N-(4-(2,6-dimethoxyphenyl)-5-(5-methyl-2-furanyl)-4H-1,2,4-triazol-3-yl)-1-hydroxy-1-pyrazolo[1,5-a]pyridin-7-yl-2-propanesulfonamide], the pEC50 was 8.17.

`COc1cccc(OC)c1-n1c(NS(=O)(=O)[C@H](C)[C@@H](O)c2nccn2C)nnc1-c1ccc(C)o1` (single isomer, unassigned) [Example 297.0, (1S,2R)—N-(4-(2,6-Dimethoxyphenyl)-5-(5-methyl-2-furanyl)-4H-1,2,4-triazol-3-yl)-1-hydroxy-1-(1-methyl-1H-imidazol-2-yl)-2-propanesulfonamide or (1R,2S)—N-(4-(2,6-dimethoxyphenyl)-5-(5-methyl-2-furanyl)-4H-1,2,4-triazol-3-yl)-1-hydroxy-1-(1-methyl-1H-imidazol-2-yl)-2-propanesulfonamide]: the pEC50 is 8.06.

For the compound `COc1cccc(OC)c1-n1c(NS(=O)(=O)[C@H](C)[C@H](O)c2cscn2)nnc1-c1ccc(C)o1` (single isomer, unassigned) [Example 298.0, (1R,2R)—N-(4-(2,6-Dimethoxyphenyl)-5-(5-methyl-2-furanyl)-4H-1,2,4-triazol-3-yl)-1-hydroxy-1-(1,3-thiazol-4-yl)-2-propanesulfonamide or (1S,2S)—N-(4-(2,6-dimethoxyphenyl)-5-(5-methyl-2-furanyl)-4H-1,2,4-triazol-3-yl)-1-hydroxy-1-(1,3-thiazol-4-yl)-2-propanesulfonamide], the pEC50 is 7.96.

For the compound `COc1cccc(OC)c1-n1c(NS(=O)(=O)[C@@H](C)[C@H](O)c2cccc3nccn23)nnc1-c1ccc(C)o1` (single isomer, unassigned) [Example 299.0, (1R,2S)—N-(4-(2,6-Dimethoxyphenyl)-5-(5-methyl-2-furanyl)-4H-1,2,4-triazol-3-yl)-1-hydroxy-1-imidazo[1,2-a]pyridin-5-yl-2-propanesulfonamide or (1S,2R)—N-(4-(2,6-dimethoxyphenyl)-5-(5-methyl-2-furanyl)-4H-1,2,4-triazol-3-yl)-1-hydroxy-1-imidazo[1,2-a]pyridin-5-yl-2-propanesulfonamide], the pEC50 is 7.96.

`COc1cccc(OC)c1-n1c(NS(=O)(=O)[C@H](C)[C@@H](O)c2coc(C)n2)nnc1-c1ccc(C)o1` (single isomer, unassigned) [Example 303.0, (1R,2S)—N-(4-(2,6-Dimethoxyphenyl)-5-(5-methyl-2-furanyl)-4H-1,2,4-triazol-3-yl)-1-hydroxy-1-(2-methyl-1,3-oxazol-4-yl)-2-propanesulfonamide or (1S,2R)—N-(4-(2,6-dimethoxyphenyl)-5-(5-methyl-2-furanyl)-4H-1,2,4-triazol-3-yl)-1-hydroxy-1-(2-methyl-1,3-oxazol-4-yl)-2-propanesulfonamide]: the pEC50 was 7.89.

For `COc1cccc(OC)c1-n1c(NS(=O)(=O)[C@@H](C)[C@@H](O)c2cc3ccccn3n2)nnc1-c1ccc(C)o1` (single isomer, unassigned) [Example 304.0, (1S,2S)—N-(4-(2,6-Dimethoxyphenyl)-5-(5-methyl-2-furanyl)-4H-1,2,4-triazol-3-yl)-1-hydroxy-1-pyrazolo[1,5-a]pyridin-2-yl-2-propanesulfonamide or (1R,2R)—N-(4-(2,6-dimethoxyphenyl)-5-(5-methyl-2-furanyl)-4H-1,2,4-triazol-3-yl)-1-hydroxy-1-pyrazolo[1,5-a]pyridin-2-yl-2-propanesulfonamide], the pEC50 is 7.80.

On to `COc1cccc(OC)c1-n1c(NS(=O)(=O)[C@H](C)[C@@H](O)c2cscn2)nnc1-c1ccc(C)o1` (single isomer, unassigned) [Example 307.0, (1S,2R)—N-(4-(2,6-Dimethoxyphenyl)-5-(5-methyl-2-furanyl)-4H-1,2,4-triazol-3-yl)-1-hydroxy-1-(1,3-thiazol-4-yl)-2-propanesulfonamide or (1R,2S)—N-(4-(2,6-dimethoxyphenyl)-5-(5-methyl-2-furanyl)-4H-1,2,4-triazol-3-yl)-1-hydroxy-1-(1,3-thiazol-4-yl)-2-propanesulfonamide], for which the pEC50 is 7.55.

As for `COc1cccc(OC)c1-n1c(NS(=O)(=O)[C@@H](C)[C@@H](O)c2cn3ccccc3n2)nnc1-c1ccc(C)o1` (single isomer, unassigned) [Example 308.0, (1S,2S)—N-(4-(2,6-Dimethoxyphenyl)-5-(5-methyl-2-furanyl)-4H-1,2,4-triazol-3-yl)-1-hydroxy-1-imidazo[1,2-a]pyridin-2-yl-2-propanesulfonamide or (1R,2R)—N-(4-(2,6-dimethoxyphenyl)-5-(5-methyl-2-furanyl)-4H-1,2,4-triazol-3-yl)-1-hydroxy-1-imidazo[1,2-a]pyridin-2-yl-2-propanesulfonamide], the negative-log EC50 (pEC50) was 7.48.
